From paper PMC6320337, “Hepatocyte growth factor activator inhibitor-2 stabilizes Epcam and maintains epithelial organization in the mouse intestine” (Communications Biology, 2019)

Legend:
matriptase = target: T1, matriptase (Homo sapiens, UniProt Q9Y5Y6); test: fluorescent kinetic enzyme inhibition assay; type: biochemical
T1 construct: gene ST14; recombinant catalytic domain (#3946-SEB, R&D Systems)
T1 sequence (Q9Y5Y6 615-855 limits assumed): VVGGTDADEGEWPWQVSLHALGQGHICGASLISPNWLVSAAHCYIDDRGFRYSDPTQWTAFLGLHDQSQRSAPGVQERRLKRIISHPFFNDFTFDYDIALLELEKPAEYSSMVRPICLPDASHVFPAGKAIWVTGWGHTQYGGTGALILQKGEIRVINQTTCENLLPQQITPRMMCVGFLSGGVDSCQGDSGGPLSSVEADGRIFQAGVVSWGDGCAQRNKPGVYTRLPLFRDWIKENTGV

hepsin = target: T2, hepsin (Homo sapiens, UniProt P05981); test: fluorescent kinetic enzyme inhibition assay
T2 construct: gene HPN
T2 sequence (P05981 45-162 limits assumed): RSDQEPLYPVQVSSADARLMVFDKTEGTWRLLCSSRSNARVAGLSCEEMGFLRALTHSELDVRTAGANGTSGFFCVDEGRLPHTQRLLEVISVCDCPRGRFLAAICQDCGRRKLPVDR
T2 sequence (P05981 163-417 limits assumed): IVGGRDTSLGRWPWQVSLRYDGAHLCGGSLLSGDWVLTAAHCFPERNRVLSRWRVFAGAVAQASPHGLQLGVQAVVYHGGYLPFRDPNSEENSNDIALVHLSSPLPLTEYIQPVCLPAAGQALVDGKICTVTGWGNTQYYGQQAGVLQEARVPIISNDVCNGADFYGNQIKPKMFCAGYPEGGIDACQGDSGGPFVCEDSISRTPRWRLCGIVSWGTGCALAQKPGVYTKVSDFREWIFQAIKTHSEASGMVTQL

Structure (SMILES)	Ki (matriptase)	Ki (hepsin)
N=C(N)NCCC[C@H](NC(=O)[C@H](CC(N)=O)NC(=O)OCC1c2ccccc2-c2ccccc21)C(=O)c1nc2ccccc2s1 [ZFH7185-3]	0.106 µM	0.0017 µM
N=C(N)NCCC[C@H](NC(=O)CNC(=O)OCC1c2ccccc2-c2ccccc21)C(=O)c1nc2ccccc2s1 [ZFH7185-8]	0.00013 µM	0.831 µM
